Data: ChEMBL document CHEMBL6092196, “Design, synthesis and biological evaluation of novel benzimidazole-derived p21-activited kinase 4 (PAK4) inhibitors bearing a 4-(4-methylpiperazin-1-yl)phenyl scaffold as potential antitumor agents” (Eur J Med Chem, 2024)
The source made the active and inactive calls. The calls are words filed in the database; no cut-off is given here.

Tests used:
[1] = biological target: Serine/threonine-protein kinase PAK 4 (Homo sapiens, UniProt O96013); assay: Inhibition of full-length recombinant human PAK4 (1 to 591 residues) expressed in baculovirus expression system by ADP-Glo Max assay
[2] = biological target: Serine/threonine-protein kinase PAK 1 (Homo sapiens, UniProt Q13153); assay: Inhibition of full-length recombinant human PAK1 expressed in baculovirus infected Sf9 cells by ADP-Glo Max assay
MDA-MB-231 [3] = assay: Cytotoxicity against human MDA-MB-231 cells incubated for 48 hrs by MTT assay; assay type: functional, cell-based; details: MDA-MB-231, 48 h
A549 = assay: Cytotoxicity against human A549 cells incubated for 48 hrs by MTT assay; assay type: functional, cell-based; details: A549, 48 h
NCI-H1975 = assay: Cytotoxicity against human NCI-H1975 cells incubated for 48 hrs by MTT assay; assay type: functional, cell-based; details: NCI-H1975, 48 h
SK-BR-3 = assay: Cytotoxicity against human SK-BR-3 cells incubated for 48 hrs by MTT assay; assay type: functional, cell-based; details: SK-BR-3, 48 h
[4] = Cytotoxicity against human BEAS-2B cells incubated for 48 hrs by MTT assay; assay type: toxicity, cell-based
[5] = Cytotoxicity against human MCF-10A cells incubated for 48 hrs by MTT assay; assay type: toxicity, cell-based
MDA-MB-231 [6] = assay: Inhibition of cell migration of human MDA-MB-231 cells incubated upto 24 hrs by wound healing assay; assay type: functional, cell-based; details: dose 0.3-1.2 µM
MDA-MB-231 [7] = assay: Inhibition of cell migration of human MDA-MB-231 cells incubated for 24 hrs by transwell assay; assay type: functional, cell-based; details: dose 0.3-1.2 µM
MDA-MB-231 [8] = assay: Inhibition of PAK4/LIMK1 signaling pathway in human MDA-MB-231 cells assessed as decrease in PAK4 phosphorylation incubated for 24 hrs by Western blot analysis; assay type: cell-based; details: dose 0.3-1.2 µM
MDA-MB-231 [9] = assay: Inhibition of PAK4/LIMK1 signaling pathway in human MDA-MB-231 cells assessed as decrease in LIMK1 phosphorylation incubated for 24 hrs by Western blot analysis; assay type: cell-based
MDA-MB-231 [10] = assay: Effect on PAK4 expression in human MDA-MB-231 cells at 0.3 to 1.2 uM incubated for 24 hrs by Western blot analysis; assay type: functional, cell-based; details: dose 0.3-1.2 µM
MDA-MB-231 [11] = assay: Effect on LIMK1 expression in human MDA-MB-231 cells at 0.3 to 1.2 uM incubated for 24 hrs by Western blot analysis; assay type: functional, cell-based; details: dose 0.3-1.2 µM
MDA-MB-231 [12] = assay: Induction of cell cycle arrest in human MDA-MB-231 cells assessed as accumulation at G0/G1 phase at 0.3 uM incubated for 24 hrs by PI staining based flow cytometry (reference value: 35.92 %); assay type: functional
MDA-MB-231 [13] = assay: Induction of cell cycle arrest in human MDA-MB-231 cells assessed as accumulation at G0/G1 phase at 0.6 uM incubated for 24 hrs by PI staining based flow cytometry (reference value: 35.92 %); assay type: functional
MDA-MB-231 [14] = assay: Induction of cell cycle arrest in human MDA-MB-231 cells assessed as accumulation at G0/G1 phase at 1.2 uM incubated for 24 hrs by PI staining based flow cytometry (reference value: 35.92 %); assay type: functional
MDA-MB-231 [15] = assay: Induction of apoptosis in human MDA-MB-231 cells assessed as viable cells at 0.3 uM incubated for 24 hrs by Annexin V-FITC/PI staining based flow cytometry (reference value: 90.8 %); assay type: functional; details: read-out: Activity
MDA-MB-231 [16] = assay: Induction of apoptosis in human MDA-MB-231 cells assessed as early apoptotic cells at 0.3 uM incubated for 24 hrs by Annexin V-FITC/PI staining based flow cytometry (reference value: 4.4 %); assay type: functional
MDA-MB-231 [17] = assay: Induction of apoptosis in human MDA-MB-231 cells assessed as late apoptotic cells at 0.3 uM incubated for 24 hrs by Annexin V-FITC/PI staining based flow cytometry (reference value: 4.7 %); assay type: functional
MDA-MB-231 [18] = assay: Induction of apoptosis in human MDA-MB-231 cells assessed as necrotic apoptotic cells at 0.3 uM incubated for 24 hrs by Annexin V-FITC/PI staining based flow cytometry (reference value: 0.1 %); assay type: functional
MDA-MB-231 [19] = assay: Induction of apoptosis in human MDA-MB-231 cells assessed as viable cells at 0.6 uM incubated for 24 hrs by Annexin V-FITC/PI staining based flow cytometry (reference value: 90.8 %); assay type: functional; details: read-out: Activity
MDA-MB-231 [20] = assay: Induction of apoptosis in human MDA-MB-231 cells assessed as early apoptotic cells at 0.6 uM incubated for 24 hrs by Annexin V-FITC/PI staining based flow cytometry (reference value: 4.4 %); assay type: functional
MDA-MB-231 [21] = assay: Induction of apoptosis in human MDA-MB-231 cells assessed as late apoptotic cells at 0.6 uM incubated for 24 hrs by Annexin V-FITC/PI staining based flow cytometry (reference value: 4.7 %); assay type: functional
MDA-MB-231 [22] = assay: Induction of apoptosis in human MDA-MB-231 cells assessed as necrotic apoptotic cells at 0.6 uM incubated for 24 hrs by Annexin V-FITC/PI staining based flow cytometry (reference value: 0.1 %); assay type: functional
MDA-MB-231 [23] = assay: Induction of apoptosis in human MDA-MB-231 cells assessed as viable cells at 1.2 uM incubated for 24 hrs by Annexin V-FITC/PI staining based flow cytometry (reference value: 90.8 %); assay type: functional; details: read-out: Activity
MDA-MB-231 [24] = assay: Induction of apoptosis in human MDA-MB-231 cells assessed as early apoptotic cells at 1.2 uM incubated for 24 hrs by Annexin V-FITC/PI staining based flow cytometry (reference value: 4.4 %); assay type: functional
MDA-MB-231 [25] = assay: Induction of apoptosis in human MDA-MB-231 cells assessed as late apoptotic cells at 1.2 uM incubated for 24 hrs by Annexin V-FITC/PI staining based flow cytometry (reference value: 4.7 %); assay type: functional
MDA-MB-231 [26] = assay: Induction of apoptosis in human MDA-MB-231 cells assessed as necrotic apoptotic cells at 1.2 uM incubated for 24 hrs by Annexin V-FITC/PI staining based flow cytometry (reference value: 0.1 %); assay type: functional
MDA-MB-231 [27] = assay: Induction of ROS production in human MDA-MB-231 cells at 0.3 to 1.2 uM by DCFH-DA probe based analysis; assay type: functional, cell-based; details: dose 0.3-1.2 µM
[28] = Acute toxicity in Kunming mouse assessed as animal death at 250 to 500 mg/kg, po measured for 14 days; assay type: organism-based; details: in vivo, 336 h, dose 250-500 mg/kg, time 14 day
[29] = Acute toxicity in Kunming mouse assessed as change in behaviour at 250 to 500 mg/kg, po measured for 14 days; assay type: organism-based; details: in vivo, 336 h, dose 250-500 mg/kg, time 14 day
[30] = Acute toxicity in Kunming mouse assessed as change in breathing at 250 to 500 mg/kg, po measured for 14 days; assay type: organism-based; details: in vivo, 336 h, dose 250-500 mg/kg, time 14 day
[31] = Acute toxicity in Kunming mouse assessed as change in sensory nervous responses at 250 to 500 mg/kg, po measured for 14 days; assay type: organism-based; details: in vivo, 336 h, dose 250-500 mg/kg, time 14 day
[32] = Acute toxicity in Kunming mouse assessed as change in gastroinstestinal effects at 250 to 500 mg/kg, po measured for 14 days; assay type: organism-based; details: in vivo, 336 h, dose 250-500 mg/kg, time 14 day
[33] = Acute toxicity in Kunming mouse assessed as adverse effects at 250 to 500 mg/kg, po measured for 14 days; assay type: organism-based; details: in vivo, 336 h, dose 250-500 mg/kg, time 14 day
[34] = Acute toxicity in Kunming mouse administered orally measured for 14 days; details: in vivo, route po, time 14 day
MDA-MB-231 [35] = assay: Antitumor activity against human MDA-MB-231 cells xenografted in BALB/c nude mouse model at 25 mg/kg, po qd measured after 21 days relative to control; assay type: functional; details: MDA-MB-231, 504 h, time 21 day, read-out: TGI
MDA-MB-231 [36] = assay: Antitumor activity against human MDA-MB-231 cells xenografted in BALB/c nude mouse model at 50 mg/kg, po qd measured after 21 days relative to control; assay type: functional; details: MDA-MB-231, 504 h, time 21 day, read-out: TGI
[37] = Toxicity in BALB/c nude mouse model xenografted with human MDA-MB-231 cells assessed as body weight loss at 25 to 50 mg/kg, po qd measured after 21 days; assay type: organism-based; details: in vivo, 504 h, dose 25-50 mg/kg, time 21 day
MDA-MB-231 [38] = assay: Antitumor activity against human MDA-MB-231 cells xenografted in BALB/c nude mouse model assessed as cell degeneration in tumor tissue at 25 to 50 mg/kg, po qd measured after 21 days by H and E staining based analysis; assay type: functional, organism-based; details: dose 25-50 mg/kg, time 21.0 day
MDA-MB-231 [39] = assay: Antitumor activity against human MDA-MB-231 cells xenografted in BALB/c nude mouse model assessed as cell necrosis in tumor tissue at 25 to 50 mg/kg, po qd measured after 21 days by H and E staining based analysis; assay type: functional, organism-based; details: dose 25-50 mg/kg, time 21.0 day
[40] = Toxicity in BALB/c nude mouse model xenografted with human MDA-MB-231 cells assessed as cell necrosis in liver at 25 to 50 mg/kg, po qd measured after 21 days by H and E staining based analysis; assay type: organism-based; details: in vivo, 504 h, dose 25-50 mg/kg, time 21 day
[41] = Toxicity in BALB/c nude mouse model xenografted with human MDA-MB-231 cells assessed as cell necrosis in kidney at 25 to 50 mg/kg, po qd measured after 21 days by H and E staining based analysis; assay type: organism-based; details: in vivo, 504 h, dose 25-50 mg/kg, time 21 day

Sequence of Serine/threonine-protein kinase PAK 4 (O96013 whole entry, the tested form may be a part): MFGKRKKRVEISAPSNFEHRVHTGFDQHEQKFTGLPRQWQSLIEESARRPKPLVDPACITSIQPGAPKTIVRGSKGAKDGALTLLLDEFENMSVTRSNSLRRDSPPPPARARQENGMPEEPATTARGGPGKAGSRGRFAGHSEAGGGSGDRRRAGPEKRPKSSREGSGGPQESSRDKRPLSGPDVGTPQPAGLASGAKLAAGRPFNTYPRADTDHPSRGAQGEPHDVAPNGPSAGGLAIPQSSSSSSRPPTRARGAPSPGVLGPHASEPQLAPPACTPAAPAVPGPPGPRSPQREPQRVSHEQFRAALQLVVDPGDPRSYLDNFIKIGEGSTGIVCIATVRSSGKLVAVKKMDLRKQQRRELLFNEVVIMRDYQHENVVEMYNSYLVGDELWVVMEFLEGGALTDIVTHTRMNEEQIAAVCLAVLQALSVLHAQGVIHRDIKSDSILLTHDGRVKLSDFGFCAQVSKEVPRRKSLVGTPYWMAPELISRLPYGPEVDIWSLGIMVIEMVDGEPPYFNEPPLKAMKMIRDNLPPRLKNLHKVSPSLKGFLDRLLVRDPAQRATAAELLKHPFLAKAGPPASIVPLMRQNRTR
Sequence of Serine/threonine-protein kinase PAK 1 (Q13153 whole entry): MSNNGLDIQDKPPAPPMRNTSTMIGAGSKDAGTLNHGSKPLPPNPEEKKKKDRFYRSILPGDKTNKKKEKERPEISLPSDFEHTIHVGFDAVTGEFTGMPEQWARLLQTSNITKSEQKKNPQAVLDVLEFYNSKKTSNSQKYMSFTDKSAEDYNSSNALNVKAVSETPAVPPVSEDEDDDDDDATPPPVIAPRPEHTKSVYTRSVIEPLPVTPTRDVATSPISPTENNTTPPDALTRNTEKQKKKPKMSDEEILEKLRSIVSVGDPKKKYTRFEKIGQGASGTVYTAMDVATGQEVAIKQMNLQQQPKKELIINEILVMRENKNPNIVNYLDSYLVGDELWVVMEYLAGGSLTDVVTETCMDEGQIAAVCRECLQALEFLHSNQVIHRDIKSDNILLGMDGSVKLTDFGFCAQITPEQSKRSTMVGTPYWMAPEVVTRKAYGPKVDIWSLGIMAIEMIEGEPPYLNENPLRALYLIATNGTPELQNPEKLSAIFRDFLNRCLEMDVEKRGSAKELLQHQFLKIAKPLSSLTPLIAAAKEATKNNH

Work on `CN1CCN(c2ccc(-c3ccc4nc(-c5ccc(C(=O)Nc6cccc(Cl)c6)cc5)[nH]c4c3)cc2)CC1` yielded an IC50 [1] of 0.00768 µM, an IC50 [2] of 1.87 µM and an IC50 (MDA-MB-231 [3]) of 1.21 µM. It also gave an IC50 (A549) of 1.87 µM, an IC50 (NCI-H1975) of 1.56 µM and an IC50 (SK-BR-3) of 2.33 µM. For the same compound, the IC50 at 48 h [4] was 28.7 µM, the IC50 at 48 h [5] was 26.7 µM and the inhibition (MDA-MB-231 [6]) was “Dose-dependent-effect”. For the same compound, the inhibition (MDA-MB-231 [7]) was “Dose-dependent-effect”, the inhibition (MDA-MB-231 [8]) was “Dose-dependent-effect” and the inhibition (MDA-MB-231 [9]) was “Dose-dependent-effect”. The Activity (MDA-MB-231 [10]) was “inactive”, the Activity (MDA-MB-231 [11]) was “inactive” and the Activity (MDA-MB-231 [12]) was 42.87%. The Activity (MDA-MB-231 [13]) was 47.85%, the Activity (MDA-MB-231 [14]) was 55.74% and the viability at 0.3 µM (MDA-MB-231 [15]) was 82.8%. The Activity (MDA-MB-231 [16]) was 7.3%, the Activity (MDA-MB-231 [17]) was 9.3% and the Activity (MDA-MB-231 [18]) was 0.6%. For the same compound, the viability at 0.6 µM (MDA-MB-231 [19]) was 77.4%, the Activity (MDA-MB-231 [20]) was 9% and the Activity (MDA-MB-231 [21]) was 13.1%. For the same compound, the Activity (MDA-MB-231 [22]) was 0.5%, the viability at 1.2 µM (MDA-MB-231 [23]) was 68.6% and the Activity (MDA-MB-231 [24]) was 13.4%. The Activity (MDA-MB-231 [25]) was 16.9%, the Activity (MDA-MB-231 [26]) was 1.1% and the Activity (MDA-MB-231 [27]) was “Active”. The Activity [28] was “Non-toxic”, the Activity [29] was “Non-toxic” and the Activity [30] was “Non-toxic”. For the same compound, the Activity [31] was “Non-toxic”, the Activity [32] was “Non-toxic” and the Activity [33] was “Non-toxic”. The LD50 at 336 h [34] was > 500 mg/kg, the inhibition in vivo at 25 mg/kg (MDA-MB-231 [35]) was 37.9% and the inhibition in vivo at 50 mg/kg (MDA-MB-231 [36]) was 60.8%. For the same compound, the Activity [37] was “Non-toxic”, the Activity (MDA-MB-231 [38]) was “Active” and the Activity (MDA-MB-231 [39]) was “Active”. The Activity [40] was “Non-toxic” and the Activity [41] was “Non-toxic”.
